# From PMC11855827, “High-Throughput Screening of Five Compound Libraries for Anthelmintic Activity and Toxicity Leads to the Discovery of Two Flavonoid Compounds” (International Journal of Molecular Sciences, 2025)
# Where two headings read alike, the source gives them in different places.
# Tested on: C. elegans
# Test: microbe, parasite or virus in culture
# Conditions: Caenorhabditis elegans
# [1] = 0 h, read-out: Percentage of motility inhibition 0 h, Table S2, C. elegans SS assay, 110 μM, 0 h, averages of 4 data points
# [2] = 24 h, read-out: Percentage of motility inhibition 24 h, Table S2, C. elegans SS assay, 110 μM, 24 h, averages of 4 data points
# [3] = 0 h, read-out: Percentage of motility inhibition 0 h
# [4] = 24 h, read-out: Percentage of motility inhibition 24 h
SMILES,inhibition at 110 µM [1] [%],inhibition at 110 µM [2] [%],inhibition at 110 µM [3] [%],inhibition at 110 µM [4] [%]
O=C(/C=C/c1ccccc1)c1ccc(O)cc1 [4'‐Hydroxychalcone],39,15,–,–
C[C@@H]1O[C@@H](O[C@H]2[C@H](O[C@H]3CC[C@]4(C)[C@H]5CC=C6[C@@H]7CC(C)(C)CC[C@]7(C(=O)O)CC[C@@]6(C)[C@]5(C)CC[C@H]4C3(C)C)OC[C@H](O[C@@H]3O[C@H](CO)[C@@H](O)[C@H](O)[C@H]3O)[C@@H]2O)[C@H](O)[C@H](O)[C@H]1O [Hederacolchiside A1],0,0,–,–
C[C@H](Cn1cnc2c(N)ncnc21)OCP(=O)(O)O [Tenofovir],22,16,–,–
COc1cc2c(cc1O)-c1cc3ccc(OC)c(OC)c3c[n+]1CC2 [Columbamine],1,0,–,–
COC(=O)C1=CO[C@@H](O[C@@H]2O[C@H](CO)[C@@H](O)[C@H](O)[C@H]2O)[C@@H]2[C@H](C)O[C@@H](O)C[C@H]12 [Morroniside],5,42,–,–
CC(C)=C[C@H]1C[C@](C)(O)[C@@H]2[C@H]3CC[C@@H]4[C@@]5(C)CC[C@H](O[C@@H]6O[C@H](CO)[C@@H](O)[C@H](O[C@@H]7O[C@H](CO)[C@@H](O)[C@H](O)[C@H]7O)[C@H]6O[C@@H]6O[C@@H](CO)[C@H](O)[C@H]6O)C(C)(C)[C@@H]5CC[C@@]4(C)[C@@]34CO[C@@]2(C4)O1 [Bacoside A3],3,0,–,–
CC(C)(C)NC(=O)N[C@H](C(=O)N1C[C@H]2[C@@H]([C@H]1C(=O)NC(CC1CCC1)C(=O)C(N)=O)C2(C)C)C(C)(C)C (stereo partly shown) [Boceprevir],28,39,–,–
NC(=O)CC[C@H](N)C(=O)O [L-Glutamine],3,0,–,–
O=C(O)[C@@H]1[C@H]2C[C@H]3c4[nH]c5ccccc5c4CCN3C[C@@H]2CC[C@@H]1O [Yohimbic acid],4,51,–,–
CC(C)c1ccc2c(c1O)CC[C@H]1C3=C(CC[C@]21C)C(=O)OC3 [Triptophenolide],11,40,–,–
O=C(O)[C@@H]1CCCN1 [L-Proline],0,0,–,–
COc1ccc(C[C@@H]2c3cc(Oc4cc(C[C@@H]5c6cc(OC)c(OC)cc6CCN5C)ccc4O)c(OC)cc3CCN2C)cc1 [Neferine],–,–,25,9
CCN1C[C@]2(COC)[C@H](O)C[C@H](OC)[C@]34C1[C@H]([C@H](OC)[C@H]23)[C@@]1(OC(C)=O)C[C@H](OC)[C@@]2(O)C[C@@H]4[C@@H]1[C@H]2OC(=O)c1ccc(OC)cc1 [Yunaconitine],24,5,–,–
CC(=O)OC[C@]12[C@H](OC(C)=O)[C@H](OC(C)=O)[C@@H]3[C@@H](OC(C)=O)[C@@]14O[C@@]3(C)COC(=O)c1cccnc1CCC(C)C(=O)O[C@@H]([C@H](OC(=O)c1ccco1)[C@@H]2OC(C)=O)[C@]4(C)O (stereo partly shown) [Wilforgine],12,5,–,–
CC12CC3OC4O[C@H](CO)[C@@H](O)[C@H](O)[C@H]4OC34CC1C4(COC(=O)c1ccccc1)C(=O)O2 (stereo partly shown) [Lactiflorin],0,11,–,–
C=C1C(=O)O[C@@H]2/C=C(\C)CC/C=C(\C)CC[C@@H]12 [Costunolide],0,21,–,–
CCC(=O)O[C@@H]1CC(=O)O[C@H](C)C/C=C/C=C/[C@H](O)[C@H](C)C[C@H](CC=O)[C@H](O[C@@H]2O[C@H](C)[C@@H](O[C@H]3C[C@@](C)(O)[C@@H](OC(=O)CC)[C@H](C)O3)[C@H](N(C)C)[C@H]2O)[C@H]1OC [Midecamycin],16,14,–,–
[H]/N=C(\N/C(=N/[H])NCCCCCCNC(=N)NC(=N)Nc1ccc(Cl)cc1)Nc1ccc(Cl)cc1 [Chlorhexidine],38,63,–,–
COC[C@H]1C[C@@H](c2nc(-c3ccc4c(c3)COc3cc5c(ccc6nc([C@@H]7CC[C@H](C)N7C(=O)[C@@H](NC(=O)OC)C(C)C)[nH]c65)cc3-4)c[nH]2)N(C(=O)[C@H](NC(=O)OC)c2ccccc2)C1 [Velpatasvir],19,1,–,–
O=C(N/N=C/c1ccc([N+](=O)[O-])o1)c1cc([N+](=O)[O-])cc([N+](=O)[O-])c1O [Nifursol],8,6,–,–
CCCCCCCCCCOc1cc2c(O)c(C(=O)OCC)cnc2cc1OCC [Decoquinate],13,1,–,–
COc1ccc(-c2coc3cc(O)ccc3c2=O)cc1 [Formononetin],6,31,–,–
Cn1c(Cc2ccccc2)nc(=O)c2ccccc21 [Arborine],0,4,–,–
O=c1ccc2nccc3c4ccccc4n1c23 [Canthin‐6‐one],0,15,–,–
COc1ccc2c(OC)c3ccoc3nc2c1OC [Skimmianine],0,15,–,–
C[C@H](Cc1ccc(O)c(O)c1)[C@@H](C)Cc1ccc(O)c(O)c1 [Masoprocol],7,17,–,–

SMILES,inhibition at 110 µM [1] [%],inhibition at 110 µM [2] [%],inhibition at 110 µM [3] [%],inhibition at 110 µM [4] [%]
[H]/N=C(/N)NS(=O)(=O)c1ccc(N)cc1 [Sulfaguanidine],22,8,–,–
CC1=C2C(=O)[C@H]3[C@@H](CC=C4C[C@@H](O)CC[C@@]43C)[C@@H]2CC[C@]12O[C@@H]1C[C@H](C)CN[C@H]1[C@H]2C [Jervine],0,33,–,–
O=c1c(O[C@@H]2O[C@H](CO)[C@@H](O)[C@H](O)[C@H]2O)c(-c2ccc(O)cc2)oc2cc(O)cc(O)c12 [Astragalin],1,1,–,–
CNCc1ccccc1 [N‐Methylbenzylamine],0,4,–,–
COC(=O)[C@]12CCCC(C)(C)[C@@H]1CCc1cc(C(C)C)c(O)c(O)c12 [Methyl carnosate],0,63,–,–
O[C@H]1[C@H](O)[C@@H](O)CN2CC[C@H](O)[C@H]12 [Castanospermine],0,0,–,–
CC(CC(=O)C[C@@H](C)[C@H]1CC(=O)[C@@]2(C)C3=C(C(=O)C[C@]12C)[C@@]1(C)CC[C@H](O)C(C)(C)[C@@H]1C[C@@H]3O)C(=O)O (stereo partly shown) [Ganoderic acid B],0,20,–,–
CC1(C)CC[C@]2(CO)CC[C@]3(C)C(=CC[C@@H]4[C@@]5(C)CC[C@H](O)C(C)(C)[C@@H]5CC[C@]43C)[C@@H]2C1 [Erythrodiol],11,68,–,–
CC(C)=C/C=C1\O[C@@H]2CC(C)=CC(=O)[C@@H]2[C@]1(C)O [Bisabolangelone],18,13,–,–
CO[C@H]1/C=C/O[C@@]2(C)Oc3c(C)c(O)c4c(c3C2=O)C2=NC3(CCN(CC(C)C)CC3)NC2=C(NC(=O)/C(C)=C\C=C\[C@H](C)[C@H](O)[C@@H](C)[C@@H](O)[C@@H](C)[C@H](OC(C)=O)[C@@H]1C)C4=O [Rifabuti n],41,2,–,–
CC[C@]12CCCN3CCc4c(n(c5ccccc45)[C@@](O)(C(=O)OC)C1)[C@@H]32 [Vincamine],0,–,–,–
COC(=O)Nc1nc2ccccc2[nH]1 [Carbendazim],18,7,–,–
COC(=O)N[C@H](C(=O)N1CC2(CC2)C[C@H]1c1nc(-c2ccc3c(c2)C(F)(F)c2cc(-c4ccc5[nH]c([C@@H]6[C@H]7CC[C@H](C7)N6C(=O)[C@@H](NC(=O)OC)C(C)C)nc5c4)ccc2-3)c[nH]1)C(C)C [Ledipasvir],25,1,–,–
CCCSc1ccc2nc(NC(=O)OC)[nH]c2c1 [Albendazole],–,–,17,6
C/C(=C\C(=O)CC(C)C(=O)O)[C@H]1CC(=O)[C@@]2(C)C3=C(C(=O)C[C@]12C)[C@@]1(C)CC[C@H](O)C(C)(C)[C@@H]1C[C@@H]3O (stereo partly shown) [Ganoderenic acid B],0,42,–,–
O=c1ncnc2n([C@H]3O[C@@H](CO)[C@H](O)[C@@H]3O)[nH]cc1-2 (stereo in doubt) [Allopurinol riboside],0,0,–,–
O=C(CCc1ccc(O)c(O)c1)NCCCNCCCCNCCCNC(=O)CCc1ccc(O)c(O)c1 [Kukoamine A],0,32,–,–
Cc1cn([C@H]2C=C[C@@H](CO)O2)c(=O)[nH]c1=O [Stavudine],25,3,–,–
COC(=O)C1=CC[C@@]23CC[C@@H]([C@@](C)(/C=C/C=C(\C)C(=O)O)OC2=O)[C@@]3(OC(C)=O)CC1 [Pseudolaric Acid B],–,–,0,9
Oc1cc(O)c2c(c1)O[C@H](c1ccc(O)c(O)c1)[C@H](O)C2 [(‐)‐Epicatechin],1,23,–,–
COc1ccc(C(C)=O)c(O)c1 [Paeonol],–,–,0,0
O=c1cc(-c2ccccc2)oc2cccc(O)c12 [5‐Hydroxyflavone],12,21,–,–
OC[C@@H](O)[C@@H](O)[C@H](O)[C@H](O)CO [D-Mannitol],11,0,–,–
COc1ccc2c(c1OC)CN(C)c1c-2ccc2cc3c(cc12)OCO3 [Dihydrochelerythrine],0,7,–,–
CCCOC(=O)c1cc(O)c(O)c(O)c1 [Propyl gallate],1,0,–,–
C[C@H](CC[C@@H](O)C(C)(C)O)[C@H]1CC[C@@]2(C)[C@@H]3CC=C4[C@@H](CC[C@H](O)C4(C)C)[C@]3(C)[C@H](O)C[C@]12C [Mogrol],5,2,–,–
